Test results published in publication PMC4812014, “Structural Investigations of N-carbamoylputrescine Amidohydrolase from Medicago truncatula: Insights into the Ultimate Step of Putrescine Biosynthesis in Plants” (Frontiers in Plant Science, 2016).

Columns and labels:
MtCPA [1] = target: T1, MtCPA (Medicago truncatula, UniProt G7ITU5); experiment: X-ray crystallography of complex, […] Å; format: binding; details: cocrystallized with 17 mM cadaverine, pH 7.0; active site, non-covalent
T1 construct: gene MTR_2g086600; recombinant in E. coli BL21 Gold (pMCSG68); His6 tag cut by TEV, N-terminal Ser-Asn-Ala linker remains; homooctamer, active site fenced by dimer mate
T1 sequence (G7ITU5 entry or part of it): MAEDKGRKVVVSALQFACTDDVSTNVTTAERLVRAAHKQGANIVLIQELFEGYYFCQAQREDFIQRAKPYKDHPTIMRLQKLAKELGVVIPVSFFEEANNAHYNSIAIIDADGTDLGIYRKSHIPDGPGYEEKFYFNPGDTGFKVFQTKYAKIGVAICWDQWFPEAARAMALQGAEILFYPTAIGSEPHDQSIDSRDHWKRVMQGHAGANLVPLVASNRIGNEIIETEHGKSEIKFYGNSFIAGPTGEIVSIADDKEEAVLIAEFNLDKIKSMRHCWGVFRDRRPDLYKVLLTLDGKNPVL

MtCPA [2] = target: T1, MtCPA; experiment: X-ray crystallography of complex, […] Å; format: binding; details: covalent; bound to Cys158 in active site; formed in crystal from 10 mM putrescine (probably with CO2), pH 7.0
MtCPA [3] = target: T2, MtCPA (Medicago truncatula, UniProt G7ITU5, C158S); experiment: X-ray crystallography of complex, […] Å; format: binding; details: cocrystallized with 10 mM putrescine, pH 7.0; active site, non-covalent
T2 construct: gene MTR_2g086600; recombinant in E. coli BL21 Gold (pMCSG68); His6 tag cut by TEV, N-terminal Ser-Asn-Ala linker remains; homooctamer, active site fenced by dimer mate
T2 sequence (G7ITU5 1-301 C158S): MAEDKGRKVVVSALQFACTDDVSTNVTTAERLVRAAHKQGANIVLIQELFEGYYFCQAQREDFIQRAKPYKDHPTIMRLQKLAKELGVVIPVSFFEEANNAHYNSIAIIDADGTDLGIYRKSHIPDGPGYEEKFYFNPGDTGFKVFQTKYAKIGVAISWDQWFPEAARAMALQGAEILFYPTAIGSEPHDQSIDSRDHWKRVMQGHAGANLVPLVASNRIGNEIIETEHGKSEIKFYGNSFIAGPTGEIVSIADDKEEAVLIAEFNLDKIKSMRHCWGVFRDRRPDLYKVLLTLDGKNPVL

[4] = target: MtCPA-C158S mutant (Medicago truncatula); experiment: crystal structure; hanging drop, 20% PEG3350, 8% Tacsimate pH 7.0 (with or without 10% glycerol); space group P2(1)2(1)2, two octamers in the asymmetric unit; data at 100 K
[5] = target: N-carbamoylputrescine amidohydrolase from Medicago truncatula (MtCPA), wild type (Medicago truncatula); experiment: as above

NCCCCCN [CAD, 1,5-diaminopentane]
X-ray crystallography of complex, 2.19 Å (MtCPA [1]): we do indeed observe CAD in the active site

NCCCCNC(O)O [DHMP, N-(dihydroxymethyl)putrescine]
X-ray crystallography of complex, 1.97 Å (MtCPA [2]): DHMP was covalently bound to the catalytic Cys158

NCCCCN [PUT, 1,4-diaminobutane]
X-ray crystallography of complex, 2.29 Å (MtCPA [3]): MtCPA-C158S mutant cocrystallized with PUT clearly shows the ligand without any modifications

MtCPA-C158S mutant (enzyme)
stoichiometry N [4]: 8

N-carbamoylputrescine amidohydrolase from Medicago truncatula (MtCPA), wild type (enzyme)
stoichiometry N [5]: 8
